Experiments:
Type in all cases: in vivo
[1] = test system: Beans; test: Beans greenhouse trial, foliar treatment; conditions: equivalent of 5 lt/ha
Procedure: Lettuce, beans, wheat and tomatoes were selected as plants to test the efficacy of the invention. Short term crops were grown in the greenhouse to ensure controlled condition and long term crops were grown outdoors in replicated trials. All relevant parameters to evaluate efficacy were tested including chlorophyll content, sugar levels, Mg and Fe tissue content, yield and quality characteristics. All trials were performed to good experimental practice (GEP) standards with adequate replication to conform to statistical comparisons. Environmental condition were monitored and kept the same between treatments for evaluation. John Innes soil based compost with low nutrient contents was used for the experiments and sieved to ensure uniformity. The applications were made to be applied at the equivalent of 5 lt/ha of end product in 180 lt of water. Treatments were administered foliarly just before runoff point. The magnesium and iron were in the form of Sulphate. […] Larger plants expressed as weight per plant was observed together with an increase in chlorophyll content, Mg and Fe content in the plant tissue and leaf diameter (which promotes resource capture). A reduction in internode length was also observed which is favourable for many greenhouse and outdoor vegetable crops.

[2] = test system: Lettuce; test: Lettuce greenhouse trial, foliar treatment
Procedure: (§1) Lettuce, beans, wheat and tomatoes were selected as plants to test the efficacy of the invention. Short term crops were grown in the greenhouse to ensure controlled condition and long term crops were grown outdoors in replicated trials. All relevant parameters to evaluate efficacy were tested including chlorophyll content, sugar levels, Mg and Fe tissue content, yield and quality characteristics. All trials were performed to good experimental practice (GEP) standards with adequate replication to conform to statistical comparisons. Environmental condition were monitored and kept the same between treatments for evaluation. John Innes soil based compost with low nutrient contents was used for the experiments and sieved to ensure uniformity. The applications were made to be applied at the equivalent of 5 lt/ha of end product in 180 lt of water. Treatments were administered foliarly just before runoff point. The magnesium and iron were in the form of Sulphate.

[3] = test system: Tomatoes; test: Tomatoes trial under glass, foliar treatment; conditions: equivalent of 5 lt/ha
Procedure: as §1
The trial on tomatoes under glass had shown a significant increase in yield and quality characteristics with the application of the present invention. […] The internode length reduced on average by 20% which is desirable for tomato plants grown under glass due to the infrastructure restrictions and efforts towards vegetative growth.

[4] = lettuce, foliar, equivalent of 5 lt/ha

## O=C(Nc1ccccc1)Nc1ccccc1 [DPU, 1,3-diphenylurea]
[1]; beans plant tissue
  Fe content: 86 mg/kg
  Mg content (%): 0.42%
[1]; beans
  Chlorophyll (mg/cm^2): 0.025 mg/cm^2
  Internode length: 7
  Leaf diameter (cm): 7.8 cm
[1]; beans, fresh weight of above ground plant at 6 wks (st. error ±10)
  Yield: 364 g
[2]; lettuce fresh weight (yield st. error ±8), foliar, equivalent of 5 lt/ha of end product in 180 lt of water
  Yield: 213 g
[2]; lettuce tissue, dry weight, foliar, equivalent of 5 lt/ha
  Fe content (mg/kg dw): 254 mg/kg dw
[2]; lettuce tissue, fresh weight, foliar, equivalent of 5 lt/ha
  Mg content (mg/kg fw): 480 mg/kg fw
[2]; [4]
  Chlorophyll (mg/cm^2): 0.029 mg/cm^2
  Leaf number: 28
  Sugar level (%): 5.5%
[2]; lettuce, weight loss after 7 days in ambient temperature (indication of shelf life)
  Weight loss (%): 22%
[3]; average fruit fresh weight
  Yield: 132 g
[3]
  Chlorophyll (mg/cm^2): 0.031 mg/cm^2
  Firmness (turgor MPa): 0.08 MPa
  Internode length: 8.1
  Sugar level (%): 6.8%

Reference: patent US9949486B2, “Agrochemical composition comprising a N,N#-disubstituted (thio)urea for the improvement of crop productivity” (Crop Intellect Ltd., priority 2014, dated 2018)
